In patent US20200031920A1, “Combination Therapy for Treating Cancer” (The George Washington University, priority 2017, published 2020):

What was measured:
[1] = tested on: SKOV3 CR cells; test: cell viability / proliferation (SRB) assay, cisplatin resistant SKOV3 CR cells; format: cell-based; conditions: for medium CI (combination index): combination with cisplatin, CI<1 synergism; for sensitization of SKOV3 CR cells to cisplatin (proliferation): combination with cisplatin at different doses, FIG. 13: 0.4 μM LY2784544, five days
Experimental: (§1) FIG. 1 is a line graph showing the proliferation of SKOV3 parental and SKOV3 CR cells treated with increasing concentrations of cisplatin for five days. Data are represented as mean±SD from three independent experiments performed in triplicate. Indicated IC50 values represent the mean of two independent experiments performed in triplicate.
(§2) FIG. 13 is a line graph showing the proliferation of SKOV3 parental and SKOV3 CR cells treated with increasing concentrations of cisplatin and 0.4 μM LY2784544 for five days. Data are represented as mean±SD from three independent experiments performed in triplicate.
(§3) Cisplatin resistant ovarian cancer cell lines were generated using procedures as described previously. Jazaeri et al., Mol Cancer Ther 12: 1958-1967 (2013). Ovarian cancer cells SKOV3 were cultured in the medium with cisplatin (Sigma-Aldrich) for three weeks, followed by release to cisplatin-free medium for another three weeks. In the next cycle, the cisplatin treatment was repeated in the medium with an increased concentration of cisplatin. After six-cycle treatment, cells were identified that were able to grow in the medium with a high concentration of cisplatin. These cisplatin resistant cells were named as SKOV3 CR (FIG. 1).
(§4) The results obtained from combinational HTS were confirmed by testing whether LY2784544 overcomes cisplatin resistance in ovarian cancer cells using multiple assays. […] The Combination index (CI), which quantitatively describes the interaction between drugs including synergism (CI<1), additive effect (CI=1), and antagonism (CI>1), was calculated.

[2] = tested on: phosphorylation of JAK2 (Y1007/1008) and STAT5 (Y694); test: western blot of JAK2/STAT5 signaling; format: cell-based
Experimental: FIG. 22 is an illustration showing that LY2784544 down-regulates JAK2/STAT5 signaling in SKOV3 CR cells. Cells were treated with the indicated concentrations of LY2784544 for 48 hr.
FIG. 23 is an illustration showing the immunoblotting for the indicated targets in SKOV3 CR cells treated with vehicle (DMSO), 3 μM LY2784544, 5 μM cisplatin, or the combination for 48 hr.
To investigate the molecular mechanism by which the JAK2-mediated pathway regulates cisplatin resistance of ovarian cancer, the activation of the JAK2-mediated pathway in paired sensitive cell line (SKOV3, IGROV1, PEO1) and resistant cell lines (SKOV3 CR, IGROV1 CR, PEO4) was examined by western blot. Compared to cisplatin sensitive cells SKOV3 or IGROV1, the JAK2 protein levels are not changed in cisplatin resistant cells SKOV3 CR, IGROV1 CR, or PEO4.
The effects of LY2784544 on the JAK2/STAT5 signaling pathway in both SKOV3 and SKOV3 CR cells were examined.

[3] = tested on: FRA1; test: immunoblot of phosphorylated and total FRA1; format: cell-based; conditions: SKOV3 CR cells, 20 μM, 24 hr
Description: FIG. 70 are illustrations ((A), (B), and (D)) and a bar graph (C) showing that ROS induces IL-11 expression by promoting expression of FOSL1 (FRA1). (A) is an illustration showing total and phosphorylated levels of FRA1 in SKOV3 and SKOV3 CR cells. […] (C) is a bar graph showing IL-11 levels measured by ELISA in the medium of SKOV3 CR cells transfected with FOSL1 siRNA for 48 hr. Data are represented as mean±SD from three independent experiments performed in triplicate. ***p<0.001. (D) is an illustration showing an immunoblot of phosphorylated and total FRA1 protein in SKOV3 CR cells treated with YCG063 20 μM for 24 hr.
To achieve this goal, pathway analyses using PathwayNet were conducted, which identified a total of 20 transcription factors that likely regulate IL-11. […] It was next tested whether ROS is required for activation or expression of FRA1 by treating SKOV3 CR cells with YGC063.

[4] = tested on: reactive oxygen species (ROS); test: ROS production (CellROX Orange reagent); format: cell-based; conditions: SKOV3 cells, YCG063 20 μM, cisplatin 1 μM, 24 hr
Experimental: FIG. 69 are bar graphs ((A)-(C) and (E)-(F)) and illustrations ((D) and (G)) showing that reactive oxygen species (ROS) induces IL-11 expression. (A) is a bar graph showing quantification of ROS production in SKOV3 and SKOV3 CR cells. Data are represented as means±SD from three independent experiments. **p<0.01. Scale bar, 100 μm. (B) is a bar graph showing quantification of ROS production in SKOV3 CR cells after treatment with the ROS inhibitor YCG063 at 20 μM for 24 hr. Data are represented as means±SD from three independent experiments. ***p<0.001. (C) is a bar graph showing IL-11 levels measured by ELISA in the medium of SKOV3 CR cells treated with YCG063 at 20 μM for 24 hr. Data are represented as mean±SD from three independent experiments performed in triplicate. ***p<0.001. […] (E) is a bar graph showing quantification of ROS production in SKOV3 cells after treated with the ROS inhibitor YCG063 (20 μM), cisplatin (1 μM), or both for 24 hr. […] (F) is a bar graph showing IL-11 levels measured by ELISA in SKOV3 cells treated with YCG063 (20 μM), cisplatin (1 μM) or both for 24 hr. […]
DNA damage induces generation of reactive oxygen species (ROS). […] ROS was detected with a live cell-permeable, fluorophore CellROX Orange reagent (Thermo Fisher Scientific) according to the manufacturer's instructions. […] ROS intensity was analyzed using ImageJ (NIH) software. […]

[5] = tested on: IL-11; test: IL-11 secretion by ELISA in cell culture medium; format: cell-based, human; conditions: 24 hr
Experimental: FIG. 69 are bar graphs ((A)-(C) and (E)-(F)) and illustrations ((D) and (G)) showing that reactive oxygen species (ROS) induces IL-11 expression. (A) is a bar graph showing quantification of ROS production in SKOV3 and SKOV3 CR cells. Data are represented as means±SD from three independent experiments. **p<0.01. Scale bar, 100 μm. (B) is a bar graph showing quantification of ROS production in SKOV3 CR cells after treatment with the ROS inhibitor YCG063 at 20 μM for 24 hr. Data are represented as means±SD from three independent experiments. ***p<0.001. (C) is a bar graph showing IL-11 levels measured by ELISA in the medium of SKOV3 CR cells treated with YCG063 at 20 μM for 24 hr. Data are represented as mean±SD from three independent experiments performed in triplicate. ***p<0.001. (D) is an illustration showing an immunoblot of phosphorylated JAK2 and STAT5 in SKOV3 CR cells treated with YCG063 (20 μM) for 24 hr. (E) is a bar graph showing quantification of ROS production in SKOV3 cells after treated with the ROS inhibitor YCG063 (20 μM), cisplatin (1 μM), or both for 24 hr. Data are represented as means±SD from three independent experiments. **p<0.01, ***p<0.001, n.s. means not significant by one-way ANOVA. (F) is a bar graph showing IL-11 levels measured by ELISA in SKOV3 cells treated with YCG063 (20 μM), cisplatin (1 μM) or both for 24 hr. Data are represented as mean±SD from three independent experiments performed in triplicate. ***p<0.001 by one-way ANOVA. (G) is an illustration showing an immunoblot of phosphorylated JAK2 and STAT5 in SKOV3 CR cells treated with YCG063 (20 μM), cisplatin (1 μM) or both for 24 hr.
Next, the factor from medium that contributes to cisplatin resistance of SKOV3 CR cells was investigated. […] The cell-free culture medium, mouse serum, and patient serum were analyzed for IL-11 levels using a human IL-11 ELISA kit (R&D Systems) according to the manufacturer's instructions. The absorbance was read at 450 nm using a microplate reader (BioTek). The data were normalized to the cell number. […]

[6] = tested on: SKOV3 CR cells; test: combinational high throughput screen with cisplatin; format: cell-based; conditions: in combination with DMSO, 1 μM cisplatin or 20 μM cisplatin
Description: A combinational HTS using multiple compound libraries including NPC (NIH Pharmaceutical Collection), MIPE (Mechanism interrogation plate), and LOPAC (The Library of Pharmacologically Active Compounds) was used to identify compounds that can overcome cisplatin resistance of SKOV3 CR cells (FIG. 5). The library of pharmacologically active compounds (LOPAC®) of 1280 compounds (1) was purchased from Sigma. The NCGC Pharmaceutical Collection (NPC) of 2816 compounds and mechanism interrogation plate (MIPE) library of 1920 compounds were previously described. Bromberg, J Clin Invest 109: 1139-1142 (2002) and Buchert et al., Oncogene 35: 939-951 (2016). Compounds from all libraries were obtained as powder and dissolved in dimethyl sulfoxide (DMSO) […]. Combinational HTS was performed as previously described. Szasz et al., Oncotarget 7: 49322-49333 (2016). A total of 6,016 compounds were screened. […] In the second screen, these 112 compounds were selected for a dose-response confirmation screen in combination with DMSO, 1 μM cisplatin or 20 μM cisplatin (FIG. 5).

[7] = tested on: SKOV3 cells; test: cell viability / proliferation (SRB) assay, SKOV3 parental cells; format: cell-based
Experimental: as §1, §2, §3, §4

Molecule: Cc1cnc(Nc2ccc(CN3CCOCC3)cc2)nc1Nc1cccc(S(=O)(=O)NC(C)(C)C)c1 [TG46]
- medium CI (combination index) ([1]; SKOV3 CR cells): 0.77

Molecule: Cc1cnc(Nc2ccc(OCCN3CCCC3)cc2)nc1Nc1cccc(S(=O)(=O)NC(C)(C)C)c1 [TG101348]
- medium CI (combination index) ([1]; SKOV3 CR cells): 0.77

Molecule: CCCCCOc1ccc(/C=N/NC(=O)CSc2c([N+](=O)[O-])ncn2C)cc1 [YCG063]
- phosphorylation of JAK2 and STAT5 ([2]; SKOV3 CR cells, YCG063 20 μM, 24 hr): significantly reduced
- expression and phosphorylation of FRA1 [3]: reduced the expression of FRA1 as well as its phosphorylation
- ROS production [4]: suppressed ROS production in SKOV3 cells
- IL-11 secretion ([5]; SKOV3 CR cells, YCG063 20 μM): significantly reduced IL-11 secretion
- cisplatin-induced IL-11 secretion ([5]; SKOV3 cells, YCG063 20 μM with cisplatin 1 μM): suppressed cisplatin-induced IL-11 secretion

Molecule: C/C(=N\NC(=S)N1CCC1)c1ccccn1 [NSC319726]
- sensitization of SKOV3 CR cells to cisplatin (proliferation) [1]: can sensitize SKOV3 CR cells to cisplatin
- sensitization to cisplatin in second (dose-response confirmation) screen [6]: significantly sensitize SKOV3 CR cells to cisplatin

Molecule: NS(=O)(=O)OC[C@@H]1C[C@@H](n2ccc3c(N[C@H]4CCc5ccccc54)ncnc32)C[C@@H]1O [MLN4924]
- sensitization of SKOV3 CR cells to cisplatin (proliferation) [1]: can sensitize SKOV3 CR cells to cisplatin
- sensitization to cisplatin in second (dose-response confirmation) screen [6]: significantly sensitize SKOV3 CR cells to cisplatin

Molecule: N.N.O=C([O-])C1(C(=O)[O-])CCC1.[Pt+2] [carboplatin]
- IC50 ([7]; SKOV3 parental cells, 5 days): 25.2 µM
- fold increase of IC50, SKOV3 CR compared to parental SKOV3 ([1]; 5 days): 4 fold
- IC50 ([1]; SKOV3 CR cells, 5 days): 118 µM

B1: recombinant IL-11: recombinant human IL-11 (R&D Systems) (protein, UniProt P20809 22-199, looked up)
Interleukin-11: PGPPPGPPRVSPDPRAELDSTVLLTRSLLADTRQLAAQLRDKFPADGDHNLDSLPTLAMSAGALGALQLPGVLTRLRADLLSYLRHVQWLRRAGGSSLKTLEPELGTLQARLDRLLRRLQLLMSRLALPQPPPDPPAPPLAPPSSAWGGIRAAHAILGGLHLTLDWAVRGLLLLKTRL
- phosphorylation of JAK2 and STAT5 ([2]; SKOV3 parental cells, 10 ng/mL IL-11 for 4 hr): did increase the phosphorylation of JAK2 (Y1007/1008) as well as phosphorylation of STAT5 (Y694)
- resistance of SKOV3 cells to cisplatin (proliferation) ([7]; IL-11 for 4 hr then cisplatin 5 days): significantly increased its resistance to cisplatin
